{"source": "ChEMBL document CHEMBL1126949", "about": "(J Med Chem, 1993)", "biological_target": "D(3) dopamine receptor (Rattus norvegicus, UniProt P19020)", "sequence (P19020 whole entry)": "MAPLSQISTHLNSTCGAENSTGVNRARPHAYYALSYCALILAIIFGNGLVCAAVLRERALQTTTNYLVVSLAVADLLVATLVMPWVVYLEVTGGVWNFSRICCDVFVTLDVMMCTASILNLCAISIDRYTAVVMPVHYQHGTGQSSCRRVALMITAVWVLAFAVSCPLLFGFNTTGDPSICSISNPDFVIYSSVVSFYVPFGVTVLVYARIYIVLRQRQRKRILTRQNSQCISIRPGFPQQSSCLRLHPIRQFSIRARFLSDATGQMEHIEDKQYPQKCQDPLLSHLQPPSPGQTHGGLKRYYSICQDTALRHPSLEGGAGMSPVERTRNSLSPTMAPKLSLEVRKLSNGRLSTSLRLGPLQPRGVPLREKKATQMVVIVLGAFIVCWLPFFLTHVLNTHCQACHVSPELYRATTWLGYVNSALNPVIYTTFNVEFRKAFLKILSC", "assay": "biochemical"}
{"molecule": "CCCN(CCC)C1CCc2cccc(O)c2C1", "note": "(stereo unspecified) [8-OH-DPAT]", "values": [{"measurement": "Ki", "value": 248, "unit": "nM"}]}
